pIC50: −log10 of the molar value. Read-outs that look alike come from different tables or passages of the source. One block for each compound: values may come before it.
Assays:
human SirT1 = target: T1, human SirT1 (Homo sapiens, UniProt Q96EB6); test: SirT1 Fluor de Lys enzymatic deacetylase assay; format: biochemical; settings: for pIC50: Table 3, p53-382 Fluor de Lys substrate, read-out: SirT1 p53-382-FdL IC50; for IC50: read-out: SirT1
T1 construct: purchased Biomol SE-239
T1 sequence (Q96EB6 1-747): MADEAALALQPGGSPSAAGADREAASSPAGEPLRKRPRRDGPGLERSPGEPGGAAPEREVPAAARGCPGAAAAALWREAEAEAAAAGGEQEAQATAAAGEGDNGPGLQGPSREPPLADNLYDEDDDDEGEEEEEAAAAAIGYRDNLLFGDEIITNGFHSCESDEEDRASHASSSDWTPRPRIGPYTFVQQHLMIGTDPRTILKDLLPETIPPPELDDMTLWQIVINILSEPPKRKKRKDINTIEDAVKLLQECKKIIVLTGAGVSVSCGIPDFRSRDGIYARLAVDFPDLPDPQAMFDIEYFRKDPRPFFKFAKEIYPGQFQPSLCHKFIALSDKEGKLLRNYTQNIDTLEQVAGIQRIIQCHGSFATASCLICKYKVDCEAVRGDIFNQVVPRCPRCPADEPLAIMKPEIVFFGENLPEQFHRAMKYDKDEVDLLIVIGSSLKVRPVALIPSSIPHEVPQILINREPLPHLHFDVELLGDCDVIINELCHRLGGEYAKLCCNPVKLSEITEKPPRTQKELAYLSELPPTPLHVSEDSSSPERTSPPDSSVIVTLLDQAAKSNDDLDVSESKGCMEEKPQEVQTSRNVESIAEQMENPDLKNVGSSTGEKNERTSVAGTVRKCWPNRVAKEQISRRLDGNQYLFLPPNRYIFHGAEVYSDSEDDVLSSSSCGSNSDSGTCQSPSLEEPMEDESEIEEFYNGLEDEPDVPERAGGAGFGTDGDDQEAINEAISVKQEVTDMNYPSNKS
Excerpt: An exemplary assay method includes a 1536 well format of the SirT1 enzymatic assay that is based on the commercial “Fluor-de-Lys” assay principle by Biomol, which is fluorogenic (www.biomol.com/store/Product_Data_PDFs/ak500.pdf). In this assay, deacetylation of the e-amino function of a lysyl residue is coupled to a fluorogenic “development step that is dependent on the unblocked e-amino functionality and generates fluorescent aminomethylcoumarin. Fluorescence can be read on a commercial macroscopic reader.
Step Description • 1 Prepare amount of 2× Substrates necessary for the number of wells to be assayed.

SirT2 = target: T2, SirT2 (Homo sapiens, UniProt Q8IXJ6); test: SirT2 activity (Tables 1 and 2); format: biochemical
T2 sequence (Q8IXJ6 1-389): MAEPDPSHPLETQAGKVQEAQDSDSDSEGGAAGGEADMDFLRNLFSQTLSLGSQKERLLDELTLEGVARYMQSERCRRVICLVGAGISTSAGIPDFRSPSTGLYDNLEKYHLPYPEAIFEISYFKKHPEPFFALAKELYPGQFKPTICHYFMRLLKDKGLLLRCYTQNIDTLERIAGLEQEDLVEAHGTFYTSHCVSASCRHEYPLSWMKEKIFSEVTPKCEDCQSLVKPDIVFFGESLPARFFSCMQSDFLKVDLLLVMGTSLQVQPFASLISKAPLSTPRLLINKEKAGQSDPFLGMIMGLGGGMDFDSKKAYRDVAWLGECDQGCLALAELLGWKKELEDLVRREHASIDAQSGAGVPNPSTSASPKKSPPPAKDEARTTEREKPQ

GFP-hSIRT2 isoform 1 = target: T3, GFP-hSIRT2 isoform 1 (Homo sapiens, UniProt Q8IXJ6); test: Acetylated tubulin staining in HeLa cells transfected with GFP-hSIRT2 isoform 1; format: cell-based; settings: 50 μM compound with 1 μM TSA, added 36 hours post transfection, stained next morning; versus DMSO
T3 construct: expressed in transfected cells; host or cells: HeLa
T3 sequence (Q8IXJ6 1-389): T2 sequence (Q8IXJ6 1-389)
Procedure: HeLa cells were transfected with GFP-hSIRT2 isoform 1. At 36 hours post transfection 1 μM of TSA and either DMSO or 50 μM of Compound 8 was added. The next morning cells were fixed, permeabilized, and stained for acetylated tubulin.

[1] = Table 1, Activity of Triazoles (conc. in μM)
[2] = Table 2, Activity of representative compounds (conc. in μM)

SMILES: CSc1c(CC(=O)NCCO)n(C)c2ccc(C)cc12 [Compound 48, 2-(1,5-Dimethyl-3-methylsulfanyl-1H-indol-2-yl)-N-(2-hydroxy-ethyl)-acetamide]
- pIC50 (human SirT1): < 5.00

SMILES: COc1ccc(-n2c(COc3cccc4ccccc34)nnc2SCC(N)=O)cc1 [Compound 2, 2-[4-(4-Methoxy-phenyl)-5-(naphthalen-1-yloxymethyl)-4H-[1,2,4]triazol-3-ylsulfanyl]-acetamide]
- IC50 (human SirT1; [1]): 1 to 10 µM
- IC50 (SirT2; [1]): > 10 µM

SMILES: CCC1CCc2c(sc(N)c2C(N)=O)C1 (stereo not shown) [Compound 38, 2-Amino-6-ethyl-4,5,6,7-tetrahydro-benzo[b]thiophene-3-carboxylic acid amide]
- pIC50 (human SirT1): < 5.00

SMILES: NC(=O)Cn1c(=O)oc2cc(Br)ccc21 [Compound 6, 2-(6-Bromo-2-oxo-benzooxazol-3-yl)-acetamide]
- IC50 (human SirT1; [2]): 1 to 10 µM
- IC50 (SirT2; [2]): > 10 µM

SMILES: CC(C)CC(=O)Nc1sc2c(c1C(N)=O)CCCCCC2 [Compound 33, 2-(3-Methyl-butyrylamino)-4,5,6,7,8,9-hexahydro-cycloocta[b]thiophene-3-carboxylic acid amide]
- pIC50 (human SirT1): < 5.00

SMILES: Cc1ccc(-n2c(Cc3ccccc3)nnc2SCC(N)=O)cc1 [Compound 3, 2-(5-Benzyl-4-p-tolyl-4H-[1,2,4]triazol-3-ylsulfanyl)-acetamide]
- IC50 (human SirT1; [1]): 1 to 10 µM
- IC50 (SirT2; [1]): > 10 µM

SMILES: Cc1ccc(-n2c(SCC(N)=O)nnc2-c2ccccc2Br)cc1 [Compound 4, 2-[5-(2-Bromo-phenyl)-4-p-tolyl-4H-[1,2,4]triazol-3-ylsulfanyl]-acetamide]
- IC50 (human SirT1; [1]): > 10 µM
- IC50 (SirT2; [1]): 1 to 10 µM

SMILES: CC1CCc2c(sc(N)c2C(N)=O)C1 (stereo not shown) [Compound 36, 2-Amino-6-methyl-4,5,6,7-tetrahydro-benzo[b]thiophene-3-carboxylic acid amide]
- pIC50 (human SirT1): < 5.00

SMILES: Nn1c(CCC(=O)O)nc2sc3c(c2c1=O)CCCC3 [Compound 7, 3-(3-Amino-4-oxo-3,4,5,6,7,8-hexahydro-benzo[4,5]thieno[2,3-d]pyrimidin-2-yl)-propionic acid]
- IC50 (human SirT1; [2]): > 10 µM
- IC50 (SirT2; [2]): > 10 µM

SMILES: NC(=O)COC(=O)c1sc2ccccc2c1Cl [Compound 8, 3-Chloro-benzo[b]thiophene-2-carboxylic acid carbamoylmethyl ester]
- acetylation of tubulin in cells expressing SIRT2 (GFP-hSIRT2 isoform 1): more highly acetylated

SMILES: NC(=O)CSc1nnc(Cc2c[nH]c3ccccc23)n1Cc1ccccc1 [Compound 1, 2-[4-Benzyl-5-(1H-indol-3-ylmethyl)-4H-[1,2,4]triazol-3-ylsulfanyl]-acetamide]
- IC50 (human SirT1; [1]): 1 to 10 µM
- IC50 (SirT2; [1]): > 10 µM

SMILES: O=C(O)CSc1nc2sc3c(c2c(=O)n1C1CCCCC1)CCC3 [Compound 5, (5-Cyclohexyl-4-oxo-2,3,4,5-tetrahydro-1H-8-thia-5,7-diaza-cyclopenta[a]inden-6-ylsulfanyl)-acetic acid]
- IC50 (human SirT1; [2]): 1 to 10 µM
- IC50 (SirT2; [2]): > 10 µM

Results, then the compound that gave them:

- pIC50 (human SirT1): < 5.00
SMILES: Cc1sc(NC(=O)Cn2nc([N+](=O)[O-])cc2C)c(C(N)=O)c1C [Compound 9, 4,5-Dimethyl-2-[2-(5-methyl-3-nitro-pyrazol-1-yl)-acetylamino]-thiophene-3-carboxylic acid amide]

- pIC50 (human SirT1): < 5.00
SMILES: Cc1sc(NC(=O)c2ccc(Br)o2)c(C(N)=O)c1C [Compound 11, 5-Bromo-furan-2-carboxylic acid (3-carbamoyl-4,5-dimethyl-thiophen-2-yl)-amide]

- pIC50 (human SirT1): < 5.00
SMILES: Cc1sc(NC(=O)c2cnccn2)c(C(N)=O)c1C [Compound 30, Pyrazine-2-carboxylic acid (3-carbamoyl-4,5-dimethyl-thiophen-2-yl)-amide]

- pIC50 (human SirT1): < 5.00
SMILES: Cc1sc(NC(=O)c2ccncc2)c(C(N)=O)c1C [Compound 29, N-(3-Carbamoyl-4,5-dimethyl-thiophen-2-yl)-isonicotinamide]

- pIC50 (human SirT1): < 5.00
SMILES: Cc1sc(NC(=O)C2CCCO2)c(C(N)=O)c1C (stereo not shown) [Compound 15, Tetrahydro-furan-2-carboxylic acid (3-carbamoyl-4,5-dimethyl-thiophen-2-yl)-amide]

- pIC50 (human SirT1): < 5.00
SMILES: Cc1sc(NC(=O)C2CC2)c(C(N)=O)c1C [Compound 26, 2-(Cyclopropanecarbonyl-amino)-4,5-dimethyl-thiophene-3-carboxylic acid amide]

- pIC50 (human SirT1): < 5.00
SMILES: NC(=O)c1c(NC(=O)C2CC2)sc2c1CCCCC2 [Compound 34, 2-(Cyclopropanecarbonyl-amino)-5,6,7,8-tetrahydro-4H-cyclohepta[b]thiophene-3-carboxylic acid amide]

- pIC50 (human SirT1): 5.00 to 6.00
SMILES: CCC(=O)Nc1sc2c(c1C(N)=O)CCC(C)C2 (stereo not shown) [Compound 35, 6-Methyl-2-propionylamino-4,5,6,7-tetrahydro-benzo[b]thiophene-3-carboxylic acid amide]

- pIC50 (human SirT1): > 6.00
SMILES: CC1CCc2c(sc(NC(=O)C3CCCC3)c2C(N)=O)C1 (stereo not shown) [Compound 32, 2-(Cyclopentanecarbonyl-amino)-6-methyl-4,5,6,7-tetrahydro-benzo[b]thiophene-3-carboxylic acid amide]
